Data published in patent US11639348B2, “Compositions and methods for neuraminidase detection and quantification” (priority 2018, dated 2023).
“Also recorded” adds a separate entry of the source.

Experiments:
[1] = molecular target: influenza N2 subtype neuraminidase from A/Hong Kong/1/68 (H3N2) (Influenza A virus, UniProt Q91MA2); assay type: biochemical, influenza A/Hong Kong/1/68 (H3N2); settings: pH 7.6
[2] = Spontaneous hydrolysis of stock solution
[3] = molecular target: sialidase from Micromonospora viridifaciens (NedA) (Micromonospora viridifaciens, UniProt Q02834); assay type: biochemical
[4] = system: B/Hong Kong/05/1972 NA; assay type: biochemical, influenza B/Hong Kong/05/1972; settings: pH 7.6
[5] = system: influenza virus NAs; assay type: biochemical
[6] = system: A/Washington/10/2008 H1N1 NA; assay type: biochemical, influenza A/Washington/10/2008 H1N1; settings: pH 7.6
[7] = system: A/Brisbane/59/2007 H1N1 NA; assay type: biochemical, influenza A/Brisbane/59/2007 H1N1; settings: pH 7.6
[8] = molecular target: NA of A/WS/33 (H1N1) influenza virus (Influenza A virus, UniProt P03470); assay type: biochemical, influenza A/WS/33 (H1N1)
[9] = system: B/Florida/04/2006 NA; assay type: biochemical, influenza B/Florida/04/2006; settings: pH 7.6
[10] = system: influenza B NAs; assay type: biochemical
[11] = system: A/California/07/2009 H1N1 NA; assay type: biochemical, influenza A/California/07/2009 H1N1; settings: pH 7.6
[12] = system: NA activity of virus; assay type: biochemical
[13] = system: CC(=O)NC1C(NC(=N)N)C(F)C(Oc2c(F)cc3c(C)cc(=O)oc3c2F)(C(=O)O)OC1[C@H](O)[C@H](O)CO; assay: purified protein, by the assay type; settings: pH 7.6; 30.0 °C

Sequence of influenza N2 subtype neuraminidase from A/Hong Kong/1/68 (H3N2) (Q91MA2 whole entry, looked up): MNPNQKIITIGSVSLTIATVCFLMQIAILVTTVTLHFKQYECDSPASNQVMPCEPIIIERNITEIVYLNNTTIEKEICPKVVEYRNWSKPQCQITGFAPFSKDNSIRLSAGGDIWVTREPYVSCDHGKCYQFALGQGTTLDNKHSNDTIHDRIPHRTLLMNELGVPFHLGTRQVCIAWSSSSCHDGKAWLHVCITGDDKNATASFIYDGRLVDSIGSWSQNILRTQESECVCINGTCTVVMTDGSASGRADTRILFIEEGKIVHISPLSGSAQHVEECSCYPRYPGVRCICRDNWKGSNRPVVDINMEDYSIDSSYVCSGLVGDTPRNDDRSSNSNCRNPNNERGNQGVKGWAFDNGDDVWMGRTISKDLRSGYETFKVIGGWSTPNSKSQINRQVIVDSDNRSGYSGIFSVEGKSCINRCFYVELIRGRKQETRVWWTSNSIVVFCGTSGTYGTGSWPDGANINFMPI
Sequence of sialidase from Micromonospora viridifaciens (NedA) (Q02834 38-647): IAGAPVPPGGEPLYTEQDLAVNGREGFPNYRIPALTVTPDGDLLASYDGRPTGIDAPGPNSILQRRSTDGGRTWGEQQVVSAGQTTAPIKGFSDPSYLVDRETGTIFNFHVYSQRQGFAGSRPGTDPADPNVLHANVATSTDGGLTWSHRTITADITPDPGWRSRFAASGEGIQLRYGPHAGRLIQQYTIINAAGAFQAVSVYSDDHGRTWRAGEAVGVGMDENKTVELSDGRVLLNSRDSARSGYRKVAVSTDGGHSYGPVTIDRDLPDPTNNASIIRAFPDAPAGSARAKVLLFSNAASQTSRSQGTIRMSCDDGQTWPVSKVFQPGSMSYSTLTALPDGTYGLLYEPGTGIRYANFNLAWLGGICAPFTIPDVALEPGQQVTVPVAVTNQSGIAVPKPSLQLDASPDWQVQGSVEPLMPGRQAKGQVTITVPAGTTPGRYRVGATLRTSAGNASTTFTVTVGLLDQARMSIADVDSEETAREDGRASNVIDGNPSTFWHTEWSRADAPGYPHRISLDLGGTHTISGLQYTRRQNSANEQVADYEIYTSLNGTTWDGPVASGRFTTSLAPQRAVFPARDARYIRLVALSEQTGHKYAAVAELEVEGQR
Sequence of NA of A/WS/33 (H1N1) influenza virus (P03470 whole entry, looked up): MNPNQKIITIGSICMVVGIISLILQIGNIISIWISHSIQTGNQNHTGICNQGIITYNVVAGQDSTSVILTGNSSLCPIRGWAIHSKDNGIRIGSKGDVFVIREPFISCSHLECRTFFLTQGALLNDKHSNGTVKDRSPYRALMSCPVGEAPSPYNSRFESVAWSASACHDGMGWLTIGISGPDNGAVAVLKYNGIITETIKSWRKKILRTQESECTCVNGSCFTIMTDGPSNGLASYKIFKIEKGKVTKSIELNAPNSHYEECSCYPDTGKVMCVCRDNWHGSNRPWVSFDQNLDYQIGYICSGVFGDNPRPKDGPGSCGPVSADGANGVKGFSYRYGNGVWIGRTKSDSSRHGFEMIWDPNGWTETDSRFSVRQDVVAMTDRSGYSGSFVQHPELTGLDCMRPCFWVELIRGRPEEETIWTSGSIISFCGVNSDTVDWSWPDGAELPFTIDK

CC(=O)NC1C(O)C(F)C(Oc2c(F)cc3c(C)cc(=O)oc3c2F)(C(=O)O)OC1[C@H](O)[C@H](O)CO (stereo partly drawn) [compound 1, 5-Acetamido-3-fluoro-3,5-dideoxy-2α-(4-methyl-6,8-difluoromethylumbelli-feryl)-D-glycero-D-galactononulopyranosylnoic Acid]
burst and turnover on titration of N2 [1]: a burst was indeed seen, but significant turnover was also observed
stability of stock solution [2]: undergoes slow spontaneous hydrolysis
NedA concentration down to which burst size vs concentration is linear [3]: ≤ 0.7 nM
fluorescence response on titration of NedA (burst and turnover) ([3]; pH 7.6): a classical burst phase of increased fluorescence was observed, followed by a steady-state phase

CC(=O)NC1C(N)C(F)C(Oc2c(F)cc3c(C)cc(=O)oc3c2F)(C(=O)O)OC1[C@H](O)[C@H](O)CO (stereo partly drawn) [compound 2, 5-Acetamido-4-amino-3-fluoro-3,4,5-trideoxy-2α-(4-methyl-6,8-difluoromethylumbelliferyl)-D-glycero-D-galactononulopyranosylnoic acid]
burst and turnover on titration of N2 [1]: produced a burst, but significant turnover was still observed

CC(=O)NC1C(NC(=N)N)C(F)C(Oc2c(F)cc3c(C)cc(=O)oc3c2F)(C(=O)O)OC1[C@H](O)[C@H](O)CO (stereo partly drawn) [compound 3, 5-Acetamido-4-guanidine-3-fluoro-3,4,5-trideoxy-2α-(4-methyl-6,8-difluoromethylumbelliferyl)-D-glycero-D-galactononulopyranosylnoic acid]
burst and turnover on titration of N2 [1]: no detectable turnover at all, while a rapid initial burst was observed
Km [4]: 29.6 µM
kcat [4]: 30.0 s⁻¹
time to reach plateau of titration [5]: about 30 min
Km [6]: 62.2 µM
kcat [6]: 63.3 s⁻¹
Km [7]: 41.1 µM
kcat [7]: 32.6 s⁻¹
NA concentration down to which reliable data are given [8]: approximately 200 pM
burst, F2Mu released [8]: 27 nM
initial concentration of NA in the original virus sample [8]: 1.08 µM
response on incubation with GH33 sialidase NedA [3]: no significant response
Km [9]: 28.6 µM
kcat [9]: 26.7 s⁻¹
time to inactivation [10]: within several seconds
Km [11]: 31.9 µM
kcat [11]: 76.4 s⁻¹

O=C1CCO1 [β-propiolactone]
effect on NA activity compared to live virus [12]: significantly reduced NA activities; also recorded: dramatically reduced NA activities

(Influenza A virus (A/Hong Kong/1/1968(H3N2)))
Km [13]: 45.6 µM
kcat [13]: 76.7 s⁻¹
kcat/Km [13]: 1.68e+06 M⁻¹ s⁻¹

nonyl phenoxypolyethoxylethanol [NP40]
effect on NA activity compared to live virus [12]: did not affect the NA activity; also recorded: did not affect the NA activities
